Experiments:
Experiment in all cases: NCI 60 cell line screen
Assay type in all cases: cell-based, human
[1] = test system: CAKI-1; details: Homo sapiens; CAKI-1, Renal Cancer; read-out: Percent growth
Experimental: (§1) Anticancer profiling over a panel of 60 cancer cell lines was carried out at the National Cancer Institute (NCI), Bethesda, Maryland, USA, https://dtp.cancer.gov/discovery_development/nci-60/methodology.htm (Last visit 22 September 2021), using the standard procedure (detailed procedure is located in the Supplementary Information page 50 s).
(§2) NCI standard procedure for 60 cell lines assay
(§3) The human tumor cell lines of the cancer screening panel are grown in RPMI 1640 mediu m containing 5% fetal bovine serum and 2 mM L-glutamine. For a typical screening experiment, cells are inoculated into 96 well microtiter plates in 100 μL at plating densities ranging from 5,000 to 40,000 cells/well depending on the doubling time of individual cell lines. After cell inoculation, the microtiter plates are incubated at 37° C, 5 % CO2, 95 % air and 100 % relative humidity for 24 h prior to addition of experimental drugs.
(§4) After 24 h, two plates of each cell line are fixed in situ with TCA, to represent a measurement of the cell population for each cell line at the time of drug addition (Tz). Experimental drugs are solubilized in dimethyl sulfoxide at 400-fold the desired final maximum test concentration (10 µM) and stored frozen prior to use. At the time of drug addition, an aliquot of frozen concentrate is thawed and diluted to twice the desired final maximum test concentration with co mp lete medium containing 50 μg/ml gentamicin. Additional four, 10-fold or ½ log serial dilutions are made to provide a total of five drug concentrations plus control. Aliquots of 100 μl of these different drug dilutions are added to the appropriate microtiter wells already containing 100 μl of medium, resulting in the required final drug concentrations.
(§5) Following drug addition, the plates are incubated for an additional 48 h at 37°C, 5 % CO2, 95 % air, and 100 % relative humidity. For adherent cells, the assay is terminated by the addition of cold TCA. Cells are fixed in situ by the gentle addition of 50 μl of cold 50 % (w/v) TCA (final concentration, 10 % TCA) and incubated for 60 minutes at 4°C. The supernatant is discarded, and the plates are washed five times with tap water and air dried. Sulforhodamine B (SRB) solution (100 μl) at 0.4 % (w/v) in 1 % acetic acid is added to each well, and plates are incubated for 10 minutes at room temperature. After staining, unbound dye is removed by washing five times with 1 % acetic acid and the plates are air dried. Bound stain is subsequently solubilized with 10 mM trizma base, and the absorbance is read on an automated plate reader at a wavelength of 515 nm. For suspension cells, the methodology is the same except that the assay is terminated by fixing settled cells at the bottom of the wells by g ently adding 50 μl of 80 % TCA (final concentration, 16 % TCA). Using the seven absorbance measurements [time zero, (Tz), control growth, (C), and test growth in the presence of drug at the five concentration levels (Ti)], the percentage growth is calculated at each of the drug concentrations levels. Percentage growth inhibition is calculated as:
(§6) [(Ti-Tz)/(C-Tz)] x 100 for concentrations for which Ti>/=Tz
(§7) [(Ti-Tz)/Tz] x 100 for concentrations for which Ti<Tz.
(§8) Three dose response parameters are calculated for each experimental agent. Growth inhibition of […]
(§9) resulting in a 50% reduction in the net protein increase (as measured by SRB staining) in control cells during the drug incubation. The drug concentration resulting in total growth inhibition […]
(§10) (TGI) is calculated from Ti = Tz.

[2] = test system: NCI/ADR-RES; details: for activity at 10 µM: Homo sapiens, Ovarian Cancer, read-out: Percent growth
Experimental: as §1, §2, §3, §4, §5, §6, §7, §8, §9, §10

[3] = test system: K-562; details: Homo sapiens, K562; K-562, Leukemia; read-out: Percent growth
Experimental: as §1, §2, §3, §4, §5, §6, §7, §8, §9, §10

[4] = test system: SR; details: for activity at 10 µM: Homo sapiens, Leukemia, read-out: Percent growth; for percent inhibition: NCI-60 heat map analysis
Experimental: as §1, §2, §3, §4, §5, §6, §7, §8, §9, §10

[5] = test system: RPMI-8226; details: for activity at 10 µM: Homo sapiens, RPMI-8226, Leukemia, read-out: Percent growth; for percent inhibition: RPMI-8226, NCI-60 heat map analysis
Experimental: as §1, §2, §3, §4, §5, §6, §7, §8, §9, §10

[6] = test system: UO-31; details: for activity at 10 µM: Homo sapiens, UO-31, Renal Cancer, read-out: Percent growth
Experimental: as §1, §2, §3, §4, §5, §6, §7, §8, §9, §10

[7] = test system: NCI-H23; details: for activity at 10 µM: Homo sapiens, NCI-H23, Non-Small Cell Lung Cancer, read-out: Percent growth
Experimental: as §1, §2, §3, §4, §5, §6, §7, §8, §9, §10

[8] = test system: HCT-15; details: for activity at 10 µM: Homo sapiens, HCT-15, Colon Cancer, read-out: Percent growth
Experimental: as §1, §2, §3, §4, §5, §6, §7, §8, §9, §10

[9] = test system: SF-295; details: for activity at 10 µM: Homo sapiens, SF-295, CNS-Cancer, read-out: Percent growth
Experimental: as §1, §2, §3, §4, §5, §6, §7, §8, §9, §10

[10] = test system: SNB-75; details: for activity at 10 µM: Homo sapiens, SNB-75, CNS-Cancer, read-out: Percent growth
Experimental: as §1, §2, §3, §4, §5, §6, §7, §8, §9, §10

[11] = test system: MDA-MB-468; details: for activity at 10 µM: Homo sapiens, MDA-MB-468, Breast Cancer, read-out: Percent growth; for percent inhibition: MDA-MB-468, NCI-60 heat map analysis
Experimental: as §1, §2, §3, §4, §5, §6, §7, §8, §9, §10

[12] = test system: RXF 393; details: Homo sapiens; RXF 393, Renal Cancer; read-out: Percent growth
Experimental: as §1, §2, §3, §4, §5, §6, §7, §8, §9, §10

[13] = test system: NCI-H460; details: for activity at 10 µM: Homo sapiens, NCI-H460, Non-Small Cell Lung Cancer, read-out: Percent growth
Experimental: as §1, §2, §3, §4, §5, §6, §7, §8, §9, §10

[14] = test system: T-47D; details: for activity at 10 µM: Homo sapiens, T47D, Breast Cancer, read-out: Percent growth; for percent inhibition: NCI-60 heat map analysis
Experimental: as §1, §2, §3, §4, §5, §6, §7, §8, §9, §10

[15] = test system: KM12; details: for activity at 10 µM: Homo sapiens, KM12, Colon Cancer, read-out: Percent growth
Experimental: as §1, §2, §3, §4, §5, §6, §7, §8, §9, §10

[16] = test system: HT29; details: Homo sapiens, HT-29; HT29, Colon Cancer; read-out: Percent growth
Experimental: as §1, §2, §3, §4, §5, §6, §7, §8, §9, §10

[17] = test system: NCI-H226; details: for activity at 10 µM: Homo sapiens, NCI-H226, Non-Small Cell Lung Cancer, read-out: Percent growth
Experimental: as §1, §2, §3, §4, §5, §6, §7, §8, §9, §10

| SMILES | activity at 10 µM [1] [%] | activity at 10 µM [2] [%] | activity at 10 µM [3] [%] | activity at 10 µM [4] [%] | activity at 10 µM [5] [%] | activity at 10 µM [6] [%] | activity at 10 µM [7] [%] | activity at 10 µM [8] [%] | activity at 10 µM [9] [%] | activity at 10 µM [10] [%] | activity at 10 µM [11] [%] | activity at 10 µM [12] [%] | activity at 10 µM [13] [%] | activity at 10 µM [14] [%] | activity at 10 µM [15] [%] | activity at 10 µM [16] [%] | activity at 10 µM [17] [%] | also measured |
| --- | --- | --- | --- | --- | --- | --- | --- | --- | --- | --- | --- | --- | --- | --- | --- | --- | --- | --- |
| O=S(=O)(NCCNc1nccc(-n2cnc3ccccc32)n1)c1ccccc1 [12a, N-(2-((4-(1H-benzo [d]imidazol-1-yl)pyrimidin-2-yl)amino)ethyl)benzenesulfonamide] | 83.7 | 104 | 84.8 | 97.5 | 84.9 | 77 | 96.4 | 97 | 97.3 | 91.8 | 94.3 | 113 | 103 | 75.4 | 100 | 102 | 84.6 |  |
| O=S(=O)(NCCNc1nccc(-n2cnc3ccccc32)n1)c1ccc(F)cc1 [12b, N-(2-((4-(1H-benzo [d]imidazol-1-yl)pyrimidin-2-yl)amino)ethyl)-4-fluorobenzenesulfonamide] | 82 | 103 | 84 | 85.8 | 73.6 | 72.6 | 95.8 | 100 | 93.6 | 73.6 | 71.6 | 106 | 96.3 | 64.4 | 73.4 | 94.4 | 77.5 |  |
| O=S(=O)(NCCNc1nccc(-n2cnc3ccccc32)n1)c1ccc(Cl)cc1 [12c, N-(2-((4-(1H-benzo [d]imidazol-1-yl)pyrimidin-2-yl)amino)ethyl)-4-chlorobenzenesulfonamide] | 87.4 | 97.8 | 97.6 | 96.3 | 99.4 | 81.6 | 101 | 96.6 | 96.7 | 79.4 | 101 | 117 | 103 | 97.1 | 97.1 | 103 | 91.1 |  |
| O=S(=O)(NCCNc1nccc(-n2cnc3ccccc32)n1)c1ccc(Br)cc1 [12d, N-(2-((4-(1H-benzo [d]imidazol-1-yl)pyrimidin-2-yl)amino)ethyl)-4-bromobenzenesulfonamide] | 81.5 | 97.6 | 88.4 | 75.1 | 79.8 | 79.8 | 97.3 | 95.7 | 96.5 | 74.1 | 84 | 101 | 101 | 59.1 | 85.4 | 97.2 | 76.5 |  |
| O=S(=O)(NCCNc1nccc(-n2cnc3ccccc32)n1)c1ccc(C(F)(F)F)cc1 [12e, N-(2-((4-(1H-benzo [d]imidazol-1-yl)pyrimidin-2-yl)amino)ethyl)-4-(trifluoromethyl)benzenesulfonamide] | 43.1 | 55.9 | 40.8 | 35.5 | 44.9 | 39.9 | 54.5 | 60.7 | 44.7 | 46.8 | 26.4 | 38.2 | 57.8 | 22.3 | 58.7 | 68 | 62.7 | percent inhibition ([2]; NCI-60 heat map analysis): 45%; percent inhibition [4]: 65%; percent inhibition [5]: 55%; percent inhibition ([7]; NCI-H23, NCI-60 heat map analysis): around 40%; percent inhibition ([8]; HCT-15, NCI-60 heat map analysis): around 40%; percent inhibition ([9]; SF-295, NCI-60 heat map analysis): more than 50%; percent inhibition ([10]; SNB-75, NCI-60 heat map analysis): more than 50%; percent inhibition [11]: 74%; percent inhibition ([13]; NCI-H460, NCI-60 heat map analysis): around 40%; percent inhibition [14]: 77%; percent inhibition ([15]; KM12, NCI-60 heat map analysis): around 40% |
| COc1ccc(S(=O)(=O)NCCNc2nccc(-n3cnc4ccccc43)n2)cc1 [12f, N-(2-((4-(1H-benzo [d]imidazol-1-yl)pyrimidin-2-yl)amino)ethyl)-4-methoxy benzenesulfonamide] | 79.6 | 98.7 | 93 | 89.2 | 94 | 77.3 | 96.9 | 93.7 | 97 | 78.8 | 80.3 | 94.6 | 106 | 82.3 | 93.2 | 100 | 80.6 |  |
| Cc1ccc(S(=O)(=O)NCCNc2nccc(-n3cnc4ccccc43)n2)cc1 [12g, N-(2-((4-(1H-benzo [d]imidazol-1-yl)pyrimidin-2-yl)amino)ethyl)-4-methyl benzenesulfonamide] | 57.5 | 75.7 | 56.1 | 53.6 | 52.5 | 52 | 74.6 | 80.2 | 75.5 | 69 | 51 | 55.4 | 79 | 27.6 | 77.4 | 90.2 | 58.7 | percent inhibition [4]: around 45%; percent inhibition [5]: around 45%; percent inhibition ([6]; UO-31, NCI-60 heat map analysis): 48%; percent inhibition [11]: 49%; percent inhibition [14]: 73%; percent inhibition ([17]; NCI-H226, NCI-60 heat map analysis): around 40% |

Reference: publication PMC8508980, “Design, Synthesis and Anticancer Profile of New 4-(1H-benzo[d]imidazol-1-yl)pyrimidin-2-amine-Linked Sulfonamide Derivatives with V600EBRAF Inhibitory Effect” (International Journal of Molecular Sciences, 2021)
